Reference: US20230059009A1, “INHIBITORS OF LIN28 AND METHODS OF USE THEREOF” (The Regents of the University of California, priority 2019, published 2023)
pIC50: −log10 of the molar value.

How the values were obtained:
[1] = molecular target: T1, LIN28B/pre-let-7a-2 binding (Homo sapiens, UniProt Q6ZN17); assay: FRET assay, EGFP-tagged LIN28B and BHQ-1 labelled pre-let-7a-2; settings: doses 1.25 uM-20 uM; compared with LN1632
T1 construct: made in house; host or cells: stably transduced HEK cells; used as diluted protein lysate, not purified
T1 sequence (Q6ZN17 1-250): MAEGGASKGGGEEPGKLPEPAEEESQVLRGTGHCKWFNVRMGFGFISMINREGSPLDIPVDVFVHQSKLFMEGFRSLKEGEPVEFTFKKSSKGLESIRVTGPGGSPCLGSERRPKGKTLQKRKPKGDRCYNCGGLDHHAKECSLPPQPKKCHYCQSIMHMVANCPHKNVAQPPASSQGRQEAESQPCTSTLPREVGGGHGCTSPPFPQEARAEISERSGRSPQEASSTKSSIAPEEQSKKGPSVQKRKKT
Experimental: As described herein, compounds of formula (I) and (II) show Lin28/let-7 inhibitory activity in FRET assays in vitro and in LSCs and LSC-like Kasumi-1 cells. FRET assay was performed as previously described (51).
In order to improve binding and inhibitory capacity of a compound to LIN28b, we predicted the binding mode of LN1632 to LIN28B. […] With this model in hand, we synthesized novel compounds with improved binding capacity to Lin28b (JGJ002-JGJ008, FIG. 8). Compounds were screened using a previously described FRET-assay with an EGFP-tagged LIN28B as donor and a BHQ-1 quencher labelled pre-let-7a-2 (pre-let-7a-2-BHQ1) as acceptor (51). Briefly, recombinant LIN28B-EGFP was harvested from stably transduced HEK cells and diluted with binding buffer (300 mM NaCl, 25 mM HEPES pH 7.2, 10 μM ZnCl2, 1% Odyssey Blocking Buffer, 0.05% Tween 20, 0.5 mM TCEP) in order to adjust ideal FRET-quenching signal intensity. Protein lysate and compounds (JGJ001-JGJ008) were pre-incubated in doses ranging from 1.25 uM-20 uM for 20 min in 100 uL diluted protein lysate. Subsequently pre-let-7a-2-BHQ1 was added to the mixture (at 6.25 nM) and EGFP-LIN28B donor emission was measured using a Tecan Spark Plate Reader ([…], excitation at 488 nm, emission read-out at […], 30 flashes/s). […] Increased endogenous let-7 miRNA levels can target a panoply of LCS and cancer stem cell hallmark genes thus inhibiting tumor growth.
(§1) To test the structure-activity relationship, 39 LN1632-related analogs (JGJ001-39) were synthesized and their potency and specificity to inhibit LIN28B-RNA binding activity and upregulate mature let-7 miRNA levels was measured. […] The dual luciferase reporter assay was performed as previously described (89).

[2] = tested on: MCF7; assay: Cell viability, MTT assay, MCF7; type: cell-based; settings: Homo sapiens, MCF7 (Breast)
Experimental: (§2) To measure cell viability, cell titer glow (CTG, Promega CellTiter-Glo 2.0 Assay) and MTT assays (SigmaAldrich, Cell Proliferation Kit I) were performed. Briefly, cells were serum starved overnight prior to seeding in 96-well plates. Following 24 h incubation, cells were treated with increasing concentrations of JGJ compounds for 96 hr. At assay read-out, CellTiter-Glo reagent was added and luminescence was measured after 10-minutes incubation at room temperature. For the MTT assay, MTT labeling reagent was added and incubated for 4 h. Subsequently, medium was removed and 50 μL DMSO was added to solubilize the crystals, and absorbance was measured at 570 nm. Cell viability was calculated as (Sample-Background)/(Control-Background). Current standard of care drugs, Enzalutamide, Palbociclib and Cetuximab were used as comparative controls.

[3] = tested on: 22RV1; assay: Cell viability, MTT assay, 22RV1; type: cell-based; settings: Homo sapiens, 22RV1 (Prostate), 96 hr
Experimental: as §2, with “(Sample-Background)/(Control-Background).” for “(Sample-Background)/(Control-Background). Current standard of care drugs, Enzalutamide, Palbociclib and Cetuximab were used as comparative controls.”

[4] = tested on: HCT-116; assay: Cell viability, CTG, HCT-116; type: cell-based; settings: Homo sapiens, HCT-116 (Colon)
Experimental: as §2

[5] = tested on: MDA-MB231; assay: Cell viability, MTT assay, MDA-MB231; type: cell-based; settings: Homo sapiens, MDA-MB-231, MDA-MB231 (Breast)
Experimental: as §2

[6] = tested on: H1975; assay: Cell viability, MTT assay, H1975; type: cell-based; settings: Homo sapiens, NCI-H1975, H1975 (Lung)
Experimental: as §2, with “(Sample-Background)/(Control-Background).” for “(Sample-Background)/(Control-Background). Current standard of care drugs, Enzalutamide, Palbociclib and Cetuximab were used as comparative controls.”

[7] = tested on: BT-549; assay: Cell viability, MTT assay, BT-549; type: cell-based; settings: Homo sapiens, BT-549 (Breast)
Experimental: as §2

[8] = tested on: H1568; assay: Cell viability, MTT assay, H1568; type: cell-based; settings: NCI-H1568, H1568 (Lung)
Experimental: as §2

[9] = tested on: SW948; assay: Cell viability, CTG, SW948; type: cell-based; settings: Homo sapiens, SW948 (Colon)
Experimental: as §2

[10] = tested on: DU145; assay: Cell viability, MTT assay, DU145; type: cell-based; settings: Homo sapiens, DU-145, DU145 (Prostate)
Experimental: as §2

[11] = tested on: mature let-7 miRNAs; assay: Dual luciferase reporter assay of mature let-7 miRNAs in HepG2 cells; type: cell-based; settings: 3-10 μM, compared with LN1632
Experimental: as §1

[12] = tested on: SW620; assay: Cell viability, CTG, SW620; type: cell-based; settings: Homo sapiens, SW-620, SW620 (Colon)
Experimental: as §2

[13] = tested on: H460; assay: Cell viability, MTT assay, H460; type: cell-based; settings: Homo sapiens, NCI-H460, H460 (Lung)
Experimental: as §2

[14] = tested on: MDA-MB231; assay: Cell viability, CTG, MDA-MB231; type: cell-based; settings: Homo sapiens, MDA-MB-231, MDA-MB231 (Breast)
Experimental: as §2

[15] = tested on: A549; assay: Cell viability, MTT assay, A549; type: cell-based; settings: Homo sapiens, A549 (Lung)
Experimental: as §2, with “(Sample-Background)/(Control-Background).” for “(Sample-Background)/(Control-Background). Current standard of care drugs, Enzalutamide, Palbociclib and Cetuximab were used as comparative controls.”

[16] = tested on: LNCaP; assay: Cell viability, MTT assay, LNCaP; type: cell-based; settings: Homo sapiens, LNCaP (Prostate)
Experimental: as §2, with “(Sample-Background)/(Control-Background).” for “(Sample-Background)/(Control-Background). Current standard of care drugs, Enzalutamide, Palbociclib and Cetuximab were used as comparative controls.”

[17] = tested on: 22RV1; assay: Cell viability, CellTiter-Glo (CTG), 22RV1; type: cell-based; settings: Homo sapiens, 22RV1 (Prostate), 96 hr
Experimental: as §2, with “(Sample-Background)/(Control-Background).” for “(Sample-Background)/(Control-Background). Current standard of care drugs, Enzalutamide, Palbociclib and Cetuximab were used as comparative controls.”

[18] = tested on: 22Rv1 cells; assay: 22Rv1 cell counting; type: cell-based; settings: 2 μM JGJ023 vs 42 μM Enzalutamide, day +5, +7, +9
Experimental: (§3) To test whether LN1632 and novel analogs thereof affect cancer cell growth, cell viability and cell counting assays in TNBC (FIG. 14B-D), castration resistant prostate cancer cells (CRPC, FIG. 15A-C) and colorectal cancer cells (CRC, FIG. 15A-C) were performed.

[19] = tested on: H23; assay: Cell viability, MTT assay, H23; type: cell-based; settings: Homo sapiens, NCI-H23, H23 (Lung)
Experimental: as §2

[20] = tested on: SW480; assay: Cell viability, CTG, SW480; type: cell-based; settings: Homo sapiens, SW480 (Colon)
Experimental: as §2, with “(Sample-Background)/(Control-Background).” for “(Sample-Background)/(Control-Background). Current standard of care drugs, Enzalutamide, Palbociclib and Cetuximab were used as comparative controls.”

[21] = tested on: SW620; assay: Cell viability, MTT assay, SW620; type: cell-based; settings: Homo sapiens, SW-620, SW620 (Colon)
Experimental: as §2

[22] = tested on: MYC-driven cancers; assay: Cell viability and cell counting assays in cancer cells; type: cell-based; settings: TNBC, CRPC, lung and colorectal adenocarcinoma cells
Experimental: as §3, §2

[23] = tested on: SW480; assay: Cell viability, MTT assay, SW480; type: cell-based; settings: Homo sapiens, SW480 (Colon)
Experimental: as §2

pIC50 [3] | pIC50 [4] | pIC50 [9] | pIC50 [12] | pIC50 [14] | pIC50 [16] | pIC50 [17] | Structure (SMILES) | Inhibition of LIN28B binding to pre-let-7a (FRET signal) [1] | Upregulation of mature let-7 miRNAs [11] | further results
5.70 | 3.67 | 4.29 | 4.57 | 4.77 | 5.22 | 5.10 | CC(=O)Nc1cccc(-c2ccc3ncc(-c4ccccc4)n3n2)c1 [JGJ023, N-(3-(3-Phenylimidazo[1,2-b]pyridazin-6-yl)phenyl)acetamide] | inhibit LIN28's RNA-binding capacity significantly more than compound LN1632 | upregulated mature let-7 miRNAs at significantly lower doses than LN1632 | pIC50 [2]: 4.42; pIC50 [5]: 4.21; pIC50 [6]: 5.10; pIC50 [7]: 5.15; pIC50 [8]: 4.92; pIC50 [10]: 5.52; pIC50 [13]: 3.91; pIC50 [15]: 4.70; Apoptosis and cell numbers [18]: induces apoptosis and reduces cell numbers of mCRPC compared to Enzalutamide; pIC50 [19]: 4.03
6.00 | 4.37 | 4.07 | 5.52 | 5.52 | 5.52 | 5.70 | CC(=O)Nc1cccc(-c2ccc3[nH]cc(-c4ccccc4)c3n2)c1 [JGJ034, N-(3-(3-Phenyl-1H-pyrrolo[3,2-b]pyridin-5-yl)phenyl)acetamide] | inhibit LIN28's RNA-binding capacity significantly more than compound LN1632 | upregulated mature let-7 miRNAs at significantly lower doses than LN1632 | pIC50 [20]: 4.39; pIC50 [21]: 5.70; Proliferation and apoptosis of cancer cells [22]: reduced proliferation and induced apoptosis preferentially in MYC-driven cancers; pIC50 [23]: 4.48
